# Measured values taken from paper PMC10247784, “Physiological activation of human and mouse bitter taste receptors by bile acids” (Communications Biology, 2023).
# Where “and” joins values, the source holds several entries; their conditions need not be identical. Equal values may be shown once.
# Target: T1, human TAS2R1 (Homo sapiens, UniProt Q9NYW7)
# T1 construct: expressed in transfected cells; host or cells: HEK293T-Gα16gust44
# T1 sequence (Q9NYW7 1-299): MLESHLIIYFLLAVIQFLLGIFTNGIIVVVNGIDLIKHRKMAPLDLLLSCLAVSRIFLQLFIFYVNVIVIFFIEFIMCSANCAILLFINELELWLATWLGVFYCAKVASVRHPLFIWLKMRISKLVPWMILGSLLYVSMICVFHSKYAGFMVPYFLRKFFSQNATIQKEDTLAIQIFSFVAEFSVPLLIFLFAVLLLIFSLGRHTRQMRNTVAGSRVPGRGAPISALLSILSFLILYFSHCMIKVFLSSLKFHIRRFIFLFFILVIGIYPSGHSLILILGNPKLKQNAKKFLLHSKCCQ
# Assay: Calcium imaging assay (FLIPR), HEK293T-Gα16gust44 cells transfected with human TAS2R1
# Format: cell-based
# Procedure: This set of bile acids was chosen because of their commercial availability in high purities, their diversity within the class of bile acids and their previous detection and quantitation in human blood. Stock solutions were prepared in DMSO.
# As basal growth medium for the HEK293T-Gα16gust44 cell line[17],[59] served Dulbecco’s modified eagle medium (DMEM) (Thermo Fisher Scientific, Darmstadt, Germany) supplemented with 10 % fetal bovine serum (Sigma-Aldrich, Steinheim, Germany), 2 mM L-glutamine (Sigma-Aldrich, Steinheim, Germany), 100 units/ml penicillin (Sigma Aldrich, Steinheim, Germany) and 100 µg/ml streptomycin (Sigma Aldrich, Steinheim, Germany). Growth conditions were 37 °C, 5 % CO2 and saturated air-humidity[60].
# HEK293T-Gα16gust44 cells were seeded on poly-D-lysine (10 µg/ml) coated 96-well plates to reach a confluence of 40-60 % the next day. For transient transfection 150 ng of plasmid DNA containing the receptor of interest and 0.3 µl lipofectamine 2000 (Thermo Fisher Scientific, Darmstadt, Germany) per well were used and transfection took place according to the manual of lipofectamine 2000. […] The empty vector DNA (mock) was transfected as negative control[14],[41].
# Cells were loaded using the calcium-sensitive fluorescent dye Fluo-4-AM (Abcam, Cambridge, Great Britain) in the presence of 2.5 mM probenecid (Sigma-Aldrich, Steinheim, Germany) the day after transfection[13],[41]. 1 h after loading, cells were washed with C1 buffer using a BioTek Cell Washer, incubated in the dark for half an hour and washed again. For automated agonist application and measurement of fluorescence changes, a FLIPR^TETRA device (Molecular Devices, San José, United States) was used. Viability of cells was tested by application of 100 nM Somatostatin 14 (Bachem, Bubendorf, Switzerland)[42].
# Measured data were negative control corrected by subtracting the signal of the mock-transfected cells and exported to Microsoft Excel using the FLIPR software ScreenWorks 4.2. In Microsoft Excel software, standardization of maximum fluorescence intensities to the basal fluorescence and normalization to the buffer-only control was done to calculate the relative fluorescence changes (ΔF/F).
# Initial screening experiments performed in duplicate wells were confirmed by at least one replication and representative traces were selected for display. All dose-response relationships were determined by three independent experiments (biological replicates) performed in duplicates (technical replicates). Threshold concentrations, defined as lowest substance concentrations leading to statistically significant elevated fluorescence changes in receptor-transfected cells compared with empty vector-transfected cells, were determined using SigmaPlot with Student’s t-test to evaluate statistical significance (p < 0.01).
compound,measurement,setting,value
"C[C@H](CCC(=O)O)[C@H]1CC[C@H]2[C@@H]3[C@H](O)C[C@@H]4C[C@H](O)CC[C@]4(C)[C@H]3C[C@H](O)[C@]12C [Cholic Acid, cholic acid]",Efficacy = maximal amplitude (ΔF/F),"TAS2R1, bile acids, mean",0.1303
same,"Efficacy (maximal amplitude ΔF/F), individual data points","TAS2R1, bile acids, single replicates, listed as CA",0.1237 and 0.1261 and 0.1411
same,RLU,Time 0 s,0 RLU
same,RLU,Time 2.015 s,-18.7915 RLU
same,RLU,Time 4.015 s,-20.7803 RLU
same,RLU,Time 6.015 s,-30.3104 RLU
same,RLU,Time 8.015 s,-41.5185 RLU
same,RLU,Time 12.015 s,-39.0663 RLU
same,RLU,Time 14.015 s,-19.7859 RLU
same,RLU,Time 16.015 s,-20.0825 RLU
same,RLU,Time 18.015 s,-33.1938 RLU
same,RLU,Time 18.796 s,-13.8993 RLU
same,RLU,Time 20.796 s,-32.113 RLU
same,RLU,Time 22.796 s,0.5227 RLU
same,RLU,Time 24.796 s,72.3168 RLU
same,RLU,Time 26.796 s,179.01 RLU
same,RLU,Time 28.796 s,273.224 RLU
same,RLU,Time 30.796 s,414.499 RLU
same,RLU,Time 32.796 s,487.46 RLU
same,RLU,Time 34.796 s,561.258 RLU
same,RLU,Time 36.796 s,600.729 RLU
same,RLU,Time 38.796 s,652.414 RLU
same,RLU,Time 40.796 s,646.063 RLU
same,RLU,Time 42.796 s,688.029 RLU
same,RLU,Time 44.796 s,718.237 RLU
same,RLU,Time 46.796 s,709.989 RLU
same,RLU,Time 48.796 s,747.058 RLU
same,RLU,Time 50.796 s,725.497 RLU
same,RLU,Time 52.796 s,721.254 RLU
same,RLU,Time 54.796 s,750.511 RLU
same,RLU,Time 56.796 s,763.129 RLU
same,RLU,Time 58.796 s,754.05 RLU
same,RLU,Time 60.796 s,736.769 RLU
same,RLU,Time 62.796 s,752.117 RLU
same,RLU,Time 64.796 s,729.251 RLU
same,RLU,Time 66.796 s,754.307 RLU
same,RLU,Time 68.796 s,748.849 RLU
same,RLU,Time 70.796 s,729.014 RLU
same,RLU,Time 72.796 s,724.252 RLU
same,RLU,Time 74.796 s,721.996 RLU
same,RLU,Time 76.796 s,719.984 RLU
same,RLU,Time 78.796 s,701.138 RLU
same,RLU,Time 80.796 s,695.956 RLU
same,RLU,Time 82.796 s,687.252 RLU
same,RLU,Time 84.796 s,702.818 RLU
same,RLU,Time 86.796 s,660.013 RLU
same,RLU,Time 88.796 s,675.614 RLU
same,RLU,Time 90.796 s,671.255 RLU
same,RLU,Time 92.796 s,645.369 RLU
same,RLU,Time 94.796 s,658.13 RLU
same,RLU,Time 96.796 s,614.664 RLU
same,RLU,Time 98.796 s,601.791 RLU
same,RLU,Time 100.796 s,605.799 RLU
same,RLU,Time 102.796 s,574.755 RLU
same,RLU,Time 104.796 s,579.697 RLU
same,RLU,Time 106.796 s,554.874 RLU
same,RLU,Time 108.796 s,536.028 RLU
same,RLU,Time 110.796 s,503.66 RLU
same,RLU,Time 112.796 s,530.288 RLU
same,RLU,Time 114.796 s,510.693 RLU
same,RLU,Time 116.796 s,515.676 RLU
same,RLU,Time 118.796 s,477.82 RLU
same,RLU,Time 120.796 s,483.731 RLU
same,RLU,Time 122.796 s,479.051 RLU
same,RLU,Time 124.796 s,471.711 RLU
same,RLU,Time 126.796 s,440.735 RLU
same,RLU,Time 128.796 s,427.776 RLU
same,RLU,Time 130.796 s,428.214 RLU
same,RLU,Time 132.796 s,399.927 RLU
same,RLU,Time 134.796 s,369.335 RLU
same,RLU,Time 136.796 s,379.68 RLU
same,RLU,Time 137.562 s,368.206 RLU
same,RLU,Time 143.562 s,326.335 RLU
same,RLU,Time 149.562 s,297.638 RLU
same,RLU,Time 155.562 s,268.743 RLU
same,RLU,Time 161.562 s,228.213 RLU
same,RLU,Time 167.562 s,217.461 RLU
same,RLU,Time 173.562 s,182.798 RLU
same,RLU,Time 179.562 s,176.247 RLU
same,RLU,Time 185.562 s,110.643 RLU
same,RLU,Time 191.562 s,119.586 RLU
same,RLU,Time 197.562 s,108.976 RLU
same,RLU,Time 203.562 s,106.514 RLU
same,RLU,Time 209.562 s,78.0739 RLU
same,RLU,Time 215.562 s,68.108 RLU
same,RLU,Time 221.562 s,58.6538 RLU
same,RLU,Time 227.562 s,6.904 RLU
same,RLU,Time 233.562 s,-20.3665 RLU
same,RLU,Time 239.562 s,5.663 RLU
same,RLU,Time 245.562 s,6.786 RLU
same,RLU,Time 293.562 s,-10.9022 RLU
same,RLU,Time 299.562 s,-34.1549 RLU
same,RLU,"calcium trace, sheet TAS2R1, Time 305.562 s",-13.9937 RLU
same,RLU,"calcium trace, sheet TAS2R1, Time 311.562 s",-29.8879 RLU
same,RLU,"calcium trace, sheet TAS2R1, Time 317.562 s",-12.8001 RLU
same,RLU,"calcium trace, sheet TAS2R1, Time 323.562 s",-27.2317 RLU
same,RLU,"calcium trace, sheet TAS2R1, Time 329.562 s",-32.4678 RLU
same,RLU,"calcium trace, sheet TAS2R1, Time 335.562 s",-20.5128 RLU
same,RLU,"calcium trace, sheet TAS2R1, Time 341.562 s",-18.5874 RLU
same,RLU,"calcium trace, sheet TAS2R1, Time 347.562 s",-51.1709 RLU
same,RLU,"calcium trace, sheet TAS2R1, Time 353.562 s",-49.428 RLU
same,RLU,"calcium trace, sheet TAS2R1, Time 359.562 s",-15.7961 RLU
same,Activation threshold concentration TAS2R1,lowest concentration with significantly increased fluorescence vs empty vector (p < 0.01),100 µM and 100.00 µM
